ChEMBL document CHEMBL1201862, “PubChem BioAssay data set” (2004)
Activity calls are given as the source filed them.

Experiments:
[1] = target: Protein-tyrosine kinase 2-beta (Homo sapiens, UniProt Q14289);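 also: potency of inhibitors of PYK2 kinase phosphorylation of poly-GT substrate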
[2] = target: T1, Tyrosine-protein phosphatase non-receptor type 7 (Homo sapiens, UniProt P35236); assay: inhibitors of human HePTP phosphatase, […], biochemical, absorbance, leukemia target (AID 521); format: functional
T1 sequence (P35236 whole entry): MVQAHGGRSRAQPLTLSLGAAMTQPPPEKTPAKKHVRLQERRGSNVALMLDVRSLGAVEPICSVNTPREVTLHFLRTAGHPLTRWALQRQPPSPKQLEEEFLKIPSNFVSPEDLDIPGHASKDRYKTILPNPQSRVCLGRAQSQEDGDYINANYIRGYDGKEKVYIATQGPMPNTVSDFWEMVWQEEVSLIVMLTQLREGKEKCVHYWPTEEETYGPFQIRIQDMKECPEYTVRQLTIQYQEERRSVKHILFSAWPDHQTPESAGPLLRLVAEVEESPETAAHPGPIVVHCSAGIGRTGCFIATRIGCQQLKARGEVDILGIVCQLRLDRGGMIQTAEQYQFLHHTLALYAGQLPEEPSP

[3] = target: Neuropeptide Y receptor type 2 (Homo sapiens, UniProt P49146); assay: NPY-Y2 antagonist potency, selectivity check, dose response, counter-screen for NPY-Y1 antagonist project, cell-based (AID 1278); format: functional
[4] = target: Neuropeptide Y receptor type 1 (Homo sapiens, UniProt P25929); assay: NPY-Y1 receptor antagonist potency, dose response, cell-based (AID 1277); format: functional
[5] = target: T2, Rac GTPase-activating protein 1 (Homo sapiens, UniProt Q9H0H5); assay: MgcRacGAP GTPase-activating activity inhibitors, confirmation, biochemical, ADP Hunter fluorescence, primary and confirmatory (AID 624330); format: functional
T2 sequence (Q9H0H5 whole entry): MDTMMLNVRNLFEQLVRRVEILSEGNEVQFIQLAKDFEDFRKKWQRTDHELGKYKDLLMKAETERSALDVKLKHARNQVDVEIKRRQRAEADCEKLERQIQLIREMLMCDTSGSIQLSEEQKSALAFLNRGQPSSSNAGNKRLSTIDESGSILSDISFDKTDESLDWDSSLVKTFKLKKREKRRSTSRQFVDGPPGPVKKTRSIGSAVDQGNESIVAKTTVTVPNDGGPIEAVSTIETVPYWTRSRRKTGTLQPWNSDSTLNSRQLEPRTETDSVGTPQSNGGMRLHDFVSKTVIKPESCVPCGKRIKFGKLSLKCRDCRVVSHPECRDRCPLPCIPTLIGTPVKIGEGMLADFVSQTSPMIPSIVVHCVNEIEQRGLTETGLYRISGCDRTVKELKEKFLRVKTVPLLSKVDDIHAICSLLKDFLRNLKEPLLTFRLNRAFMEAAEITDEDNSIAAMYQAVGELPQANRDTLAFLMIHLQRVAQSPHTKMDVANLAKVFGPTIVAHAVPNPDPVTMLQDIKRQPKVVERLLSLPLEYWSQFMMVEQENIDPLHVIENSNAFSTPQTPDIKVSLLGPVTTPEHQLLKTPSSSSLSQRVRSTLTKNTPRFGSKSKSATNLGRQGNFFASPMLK

cells [6] = assay: cells
[7] = target: Voltage-gated inwardly rectifying potassium channel KCNH2 (Homo sapiens, UniProt Q12809); assay: hERG protection from proarrhythmic block, potency, dose response, cell-based, thallium flux (AID 2121); format: ADME
Major prion protein = Major prion protein (Homo sapiens, UniProt P04156); format: functional, cell-based
cells [8] = format: functional, cell-based
[9] = target: T3, Nuclear receptor subfamily 0 group B member 1 (Homo sapiens, UniProt P51843); format: functional, cell-based;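 also: HEK293T cells transfected with SF-1 and DAX-1 plus StAR promoter luciferase reporter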
T3 sequence (P51843 whole entry): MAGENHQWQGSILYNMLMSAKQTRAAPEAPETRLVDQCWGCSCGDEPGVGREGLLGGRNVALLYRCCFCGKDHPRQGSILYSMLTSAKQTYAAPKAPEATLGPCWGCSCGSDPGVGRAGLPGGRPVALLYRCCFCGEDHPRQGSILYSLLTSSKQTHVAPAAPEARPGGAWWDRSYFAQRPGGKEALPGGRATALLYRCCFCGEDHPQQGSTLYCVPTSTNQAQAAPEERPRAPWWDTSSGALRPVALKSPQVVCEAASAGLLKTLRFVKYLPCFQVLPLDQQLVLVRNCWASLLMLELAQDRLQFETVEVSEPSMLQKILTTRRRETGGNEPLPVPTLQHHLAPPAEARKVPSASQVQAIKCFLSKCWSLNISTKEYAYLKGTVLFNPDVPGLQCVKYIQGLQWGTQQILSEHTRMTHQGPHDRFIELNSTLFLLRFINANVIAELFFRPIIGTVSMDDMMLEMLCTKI

Protein RecA = target: T4, Protein RecA (Mycobacterium tuberculosis, UniProt P9WHJ3); assay: Fluorescence Cell-Free Homogeneous Dose Retest to Identify Inhibitors of RecA-Intein Splicing Activity. [Related pubchem assays (depositor defined):AID2097, AID2223, AID489010, AID492950]; format: functional
T4 sequence (P9WHJ3 whole entry): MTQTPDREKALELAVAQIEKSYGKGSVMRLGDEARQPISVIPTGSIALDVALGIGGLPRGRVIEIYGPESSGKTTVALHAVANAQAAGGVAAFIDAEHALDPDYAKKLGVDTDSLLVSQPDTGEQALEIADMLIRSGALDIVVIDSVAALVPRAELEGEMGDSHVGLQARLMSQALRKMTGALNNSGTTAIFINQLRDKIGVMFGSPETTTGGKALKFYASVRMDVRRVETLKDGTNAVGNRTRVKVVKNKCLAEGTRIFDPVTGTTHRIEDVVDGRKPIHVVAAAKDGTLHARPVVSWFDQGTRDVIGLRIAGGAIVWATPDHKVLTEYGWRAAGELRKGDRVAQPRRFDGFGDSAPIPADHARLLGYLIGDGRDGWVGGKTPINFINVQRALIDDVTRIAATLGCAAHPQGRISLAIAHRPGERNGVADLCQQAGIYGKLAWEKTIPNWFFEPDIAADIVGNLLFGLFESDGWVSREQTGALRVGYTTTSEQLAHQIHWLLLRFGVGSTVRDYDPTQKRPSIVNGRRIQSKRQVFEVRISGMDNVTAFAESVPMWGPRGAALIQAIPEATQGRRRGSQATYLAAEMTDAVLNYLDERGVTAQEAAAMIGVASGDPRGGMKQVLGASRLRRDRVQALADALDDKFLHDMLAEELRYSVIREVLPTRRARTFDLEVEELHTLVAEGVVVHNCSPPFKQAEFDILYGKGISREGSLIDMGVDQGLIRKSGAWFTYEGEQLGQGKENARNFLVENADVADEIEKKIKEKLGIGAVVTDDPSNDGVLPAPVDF

[10] = target: T5, Replicative DNA helicase DnaB (Mycobacterium tuberculosis, UniProt P9WMR3); assay: DnaB intein splicing inhibitors, dose response, biochemical, cell-free fluorescence (AID 449749); format: functional
T5 sequence (P9WMR3 whole entry): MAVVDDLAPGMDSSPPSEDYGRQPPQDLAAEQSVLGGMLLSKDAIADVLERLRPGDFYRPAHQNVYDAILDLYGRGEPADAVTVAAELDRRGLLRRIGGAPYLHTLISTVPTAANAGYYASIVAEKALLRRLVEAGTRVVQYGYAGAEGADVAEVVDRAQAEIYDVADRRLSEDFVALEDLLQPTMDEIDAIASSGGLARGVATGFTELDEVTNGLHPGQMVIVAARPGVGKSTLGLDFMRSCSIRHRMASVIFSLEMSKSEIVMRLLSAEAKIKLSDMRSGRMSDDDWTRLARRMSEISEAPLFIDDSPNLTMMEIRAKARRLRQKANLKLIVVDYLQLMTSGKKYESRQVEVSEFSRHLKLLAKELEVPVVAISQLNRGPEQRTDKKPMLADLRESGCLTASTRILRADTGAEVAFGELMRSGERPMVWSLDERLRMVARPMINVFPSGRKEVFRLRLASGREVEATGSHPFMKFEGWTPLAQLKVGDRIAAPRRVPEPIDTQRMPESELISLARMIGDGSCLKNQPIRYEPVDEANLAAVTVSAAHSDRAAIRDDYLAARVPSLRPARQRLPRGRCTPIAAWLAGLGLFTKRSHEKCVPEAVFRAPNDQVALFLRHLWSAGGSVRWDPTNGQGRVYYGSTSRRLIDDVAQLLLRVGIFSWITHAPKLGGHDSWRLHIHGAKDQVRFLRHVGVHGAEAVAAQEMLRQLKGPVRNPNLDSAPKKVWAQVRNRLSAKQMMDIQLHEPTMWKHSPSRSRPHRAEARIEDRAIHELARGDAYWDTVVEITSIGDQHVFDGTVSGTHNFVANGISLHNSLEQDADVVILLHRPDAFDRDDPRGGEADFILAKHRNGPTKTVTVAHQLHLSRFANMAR

[11] = target: G-protein coupled receptor 55 (Homo sapiens, UniProt Q9Y2T6); assay: GPR55 antagonists blocking LPI-driven arrestin recruitment, primary screen, imaging, U2OS, beta-arrestin-GFP, LPI agonist (AID 2013); format: functional;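 also: antagonist potency measured as reduced agonist-driven arrestin aggregation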
[12] = target: E3 ubiquitin-protein ligase Mdm2 (Homo sapiens, UniProt Q00987); assay: enhancers of MDM2-luciferase reporter signal, concentration-effect titration, project on inhibitors of MDM2 ubiquitin ligase, cellular assay, luminescent readout, 384-well plate format (AID 1394); format: functional;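 also: MDM2 E3 inhibitors raise luminescence so EC50 is for signal enhancement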
E3 ubiquitin-protein ligase Mdm2, sequence (Q00987 whole entry): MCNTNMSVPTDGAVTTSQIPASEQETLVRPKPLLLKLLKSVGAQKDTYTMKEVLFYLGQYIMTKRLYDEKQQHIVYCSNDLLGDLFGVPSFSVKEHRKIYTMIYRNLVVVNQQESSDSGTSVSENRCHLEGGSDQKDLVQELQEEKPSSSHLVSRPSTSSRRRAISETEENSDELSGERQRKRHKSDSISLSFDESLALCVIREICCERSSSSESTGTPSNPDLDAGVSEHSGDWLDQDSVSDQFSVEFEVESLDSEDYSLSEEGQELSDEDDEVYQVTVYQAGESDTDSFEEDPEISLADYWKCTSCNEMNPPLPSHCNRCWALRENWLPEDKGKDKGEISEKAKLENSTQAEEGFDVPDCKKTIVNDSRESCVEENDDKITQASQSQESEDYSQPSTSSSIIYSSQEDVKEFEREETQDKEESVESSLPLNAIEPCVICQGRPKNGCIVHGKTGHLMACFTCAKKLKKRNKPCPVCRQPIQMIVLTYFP

Neuropeptide Y receptor type 2, sequence (P49146 whole entry): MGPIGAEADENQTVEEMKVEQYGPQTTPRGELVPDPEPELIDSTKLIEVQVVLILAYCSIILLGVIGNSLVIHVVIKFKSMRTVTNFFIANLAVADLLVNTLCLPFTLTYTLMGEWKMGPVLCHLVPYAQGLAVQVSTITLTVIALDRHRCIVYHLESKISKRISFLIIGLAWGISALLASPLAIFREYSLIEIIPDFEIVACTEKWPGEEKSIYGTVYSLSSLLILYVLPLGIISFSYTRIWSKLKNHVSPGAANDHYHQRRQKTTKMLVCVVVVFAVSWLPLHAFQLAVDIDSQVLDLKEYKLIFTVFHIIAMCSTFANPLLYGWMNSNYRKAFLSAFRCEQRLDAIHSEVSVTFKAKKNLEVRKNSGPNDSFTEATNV
Neuropeptide Y receptor type 1, sequence (P25929 whole entry): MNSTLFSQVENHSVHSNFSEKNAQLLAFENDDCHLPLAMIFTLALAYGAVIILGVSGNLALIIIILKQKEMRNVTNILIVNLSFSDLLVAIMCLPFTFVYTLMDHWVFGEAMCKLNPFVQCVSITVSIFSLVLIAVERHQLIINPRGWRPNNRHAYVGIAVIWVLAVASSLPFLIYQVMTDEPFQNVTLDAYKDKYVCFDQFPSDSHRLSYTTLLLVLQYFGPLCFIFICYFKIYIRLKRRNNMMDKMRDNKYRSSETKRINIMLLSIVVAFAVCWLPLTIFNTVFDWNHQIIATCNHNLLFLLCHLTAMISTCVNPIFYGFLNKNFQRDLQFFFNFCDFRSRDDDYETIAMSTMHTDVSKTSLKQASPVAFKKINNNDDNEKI
G-protein coupled receptor 55, sequence (Q9Y2T6 whole entry): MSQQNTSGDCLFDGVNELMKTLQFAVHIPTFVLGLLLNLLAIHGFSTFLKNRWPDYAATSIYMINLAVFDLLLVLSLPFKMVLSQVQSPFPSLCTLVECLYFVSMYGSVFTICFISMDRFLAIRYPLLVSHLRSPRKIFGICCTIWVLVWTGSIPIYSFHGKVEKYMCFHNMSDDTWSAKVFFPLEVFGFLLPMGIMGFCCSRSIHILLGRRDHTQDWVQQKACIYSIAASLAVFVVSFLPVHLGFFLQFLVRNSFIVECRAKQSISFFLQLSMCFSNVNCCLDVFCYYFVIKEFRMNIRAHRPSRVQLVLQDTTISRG
Protein-tyrosine kinase 2-beta, sequence (Q14289 whole entry): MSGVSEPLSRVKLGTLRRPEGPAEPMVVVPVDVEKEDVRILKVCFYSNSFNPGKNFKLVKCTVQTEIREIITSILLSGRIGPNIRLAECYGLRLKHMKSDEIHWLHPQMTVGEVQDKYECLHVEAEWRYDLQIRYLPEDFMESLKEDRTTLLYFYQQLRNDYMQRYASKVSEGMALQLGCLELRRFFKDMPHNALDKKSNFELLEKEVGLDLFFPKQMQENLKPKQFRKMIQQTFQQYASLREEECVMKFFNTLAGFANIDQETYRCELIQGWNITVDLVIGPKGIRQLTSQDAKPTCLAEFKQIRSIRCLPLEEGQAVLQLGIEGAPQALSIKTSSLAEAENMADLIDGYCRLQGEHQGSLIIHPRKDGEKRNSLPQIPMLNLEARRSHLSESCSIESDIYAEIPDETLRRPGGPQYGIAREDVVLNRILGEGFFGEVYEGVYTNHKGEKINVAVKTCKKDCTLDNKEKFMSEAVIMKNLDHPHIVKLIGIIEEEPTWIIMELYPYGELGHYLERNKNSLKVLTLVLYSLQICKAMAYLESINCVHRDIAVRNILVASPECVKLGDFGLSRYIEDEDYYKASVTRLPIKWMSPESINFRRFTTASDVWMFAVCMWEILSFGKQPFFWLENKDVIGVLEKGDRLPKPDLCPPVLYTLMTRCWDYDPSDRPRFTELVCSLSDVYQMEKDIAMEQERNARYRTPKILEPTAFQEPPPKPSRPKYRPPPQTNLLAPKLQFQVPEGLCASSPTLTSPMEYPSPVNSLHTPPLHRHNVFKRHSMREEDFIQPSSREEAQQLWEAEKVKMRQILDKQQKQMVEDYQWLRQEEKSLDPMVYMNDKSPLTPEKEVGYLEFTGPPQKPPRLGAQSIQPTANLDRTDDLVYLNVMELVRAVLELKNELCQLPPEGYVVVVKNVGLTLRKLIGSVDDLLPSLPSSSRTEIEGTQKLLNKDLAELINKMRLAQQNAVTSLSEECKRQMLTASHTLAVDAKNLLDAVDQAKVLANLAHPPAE
Voltage-gated inwardly rectifying potassium channel KCNH2, sequence (Q12809 whole entry): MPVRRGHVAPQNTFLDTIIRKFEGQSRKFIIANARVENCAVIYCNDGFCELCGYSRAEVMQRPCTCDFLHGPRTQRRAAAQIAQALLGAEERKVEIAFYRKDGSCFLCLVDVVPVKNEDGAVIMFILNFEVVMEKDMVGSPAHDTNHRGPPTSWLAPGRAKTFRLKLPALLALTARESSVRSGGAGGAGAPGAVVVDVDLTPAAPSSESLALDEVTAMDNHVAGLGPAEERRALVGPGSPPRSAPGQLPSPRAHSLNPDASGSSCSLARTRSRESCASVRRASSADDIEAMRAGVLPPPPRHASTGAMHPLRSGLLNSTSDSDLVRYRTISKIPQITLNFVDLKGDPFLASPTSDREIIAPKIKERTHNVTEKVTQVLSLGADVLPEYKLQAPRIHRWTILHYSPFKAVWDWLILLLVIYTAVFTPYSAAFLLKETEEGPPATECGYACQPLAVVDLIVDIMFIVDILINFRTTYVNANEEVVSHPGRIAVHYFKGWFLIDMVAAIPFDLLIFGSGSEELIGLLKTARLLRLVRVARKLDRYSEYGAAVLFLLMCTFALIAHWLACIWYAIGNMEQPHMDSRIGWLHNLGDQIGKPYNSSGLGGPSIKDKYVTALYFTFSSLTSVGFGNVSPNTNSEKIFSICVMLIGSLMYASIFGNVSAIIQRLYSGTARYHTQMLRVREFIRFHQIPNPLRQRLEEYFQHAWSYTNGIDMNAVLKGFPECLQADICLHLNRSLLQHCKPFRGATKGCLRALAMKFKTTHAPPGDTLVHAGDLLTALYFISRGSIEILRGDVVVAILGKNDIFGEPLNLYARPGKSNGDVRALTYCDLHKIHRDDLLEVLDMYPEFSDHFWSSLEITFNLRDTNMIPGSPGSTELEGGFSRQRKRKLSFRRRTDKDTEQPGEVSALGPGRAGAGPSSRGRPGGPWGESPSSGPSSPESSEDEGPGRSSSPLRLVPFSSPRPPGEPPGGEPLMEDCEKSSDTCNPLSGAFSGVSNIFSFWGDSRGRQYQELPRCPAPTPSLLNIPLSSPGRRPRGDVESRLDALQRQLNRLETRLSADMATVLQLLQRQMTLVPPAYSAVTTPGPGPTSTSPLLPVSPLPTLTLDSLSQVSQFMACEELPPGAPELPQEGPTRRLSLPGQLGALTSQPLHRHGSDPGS

Structure (SMILES): O=C(OCCN=C1NS(=O)(=O)c2ccccc21)c1cccnc1
- IC50 [1]: > 69.5 µM (not active)

Structure (SMILES): Cc1cnn(C(=S)NCc2ccc(Cl)cc2)c1
- IC50 [2]: > 100 µM (not active)

Structure (SMILES): COc1ccc(Oc2c[nH]nc2-c2ccc(O)cc2O)cc1
- IC50 [3]: > 35 µM (not active)
- IC50 [4]: > 35 µM (not active)
- IC50 [5]: 28.3 µM (active)

Structure (SMILES): O=C(COc1ccc2ccccc2c1Br)Nc1cccnc1
- IC50 (cells [6]): > 138 µM (inactive)
- EC50 [7]: 0.24 µM (active)
- IC50 (Major prion protein): 5.81 µM (active)
- IC50 (cells [8]): > 67.5 µM (inactive)
- IC50 [9]: > 67.5 µM (inactive)

Structure (SMILES): CN(C(=O)c1cccc(COc2ccc(Cl)cc2Cl)c1)c1ccccc1
- EC50 (Protein RecA): 7.59 µM (active)
- AC50 [10]: 10.6 µM (active)
- IC50 [11]: 2.2 µM (active)
- EC50 [12]: 0.16 µM (active)
